Key:
human full length PDE3A = molecular target: T1, human full length PDE3A (Homo sapiens, UniProt Q14432); assay: PDE3A enzyme inhibition (3H-cAMP Scintillation Proximity Assay); assay type: biochemical; conditions: PDE3A cell extract from Sf9 cells, 60 min room temperature; read-out: Target IC50 PDE3A IC50
T1 construct: Sf9 cells overexpressing human full length PDE3A; purchased SB Drug Discovery, UK; host or cells: Sf9 cells (cell extract)
Summary of the method: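 Sf9 cell extract overexpressing human full-length PDE3A, diluted for linear kinetics (<70% substrate used), in 50 mM Tris/HCl pH 7.5, 8.3 mM MgCl2, 1.7 mM EDTA, 0.2% BSA. [8-3H]cAMP substrate, 60 min at room temperature, yttrium SPA bead read-out; IC50 from sigmoidal curves of % activity.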

SK-MEL-3 (melanoma) = assay: Cell proliferation measurement (Cell Titer Glo), SK-MEL-3; assay type: cell-based; conditions: Homo sapiens, SK-MEL3, SK-MEL-3 cells, 72 h treatment, read-out: Anti-proliferation IC50 SK-MEL-3 (melanoma)
Summary of the method: (§1)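 Cells (1000/well; 500 for HeLa) plated overnight at 37 °C, then exposed to a ≥10-point compound dilution series for 72 h at 37 °C, DMSO 0.3% final as vehicle. Viability read by CellTiter-Glo luminescence; IC50 from 4-parameter fit against untreated wells.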

IGR-37 (melanoma) = assay: Cell proliferation measurement (Cell Titer Glo), IGR-37; assay type: cell-based; conditions: Homo sapiens, IGR-37 cells, 72 h treatment, read-out: Anti-proliferation IC50 IGR-37 (melanoma)
Method: (§2) The antiproliferative activity of the compounds of the general formula (I) was examined in vitro in human cancer cells. For this purpose, 1000 cells (or 500 HeLa cells) were plated in 384-well plates with appropriate growth medium and incubated at 37° C. overnight. After 24 h, the cells on the test plate were treated with the compounds of the general formula (I) as and incubated at 37° C. for 72 h. The compounds were added to the cells by means of an HP D300 digital dispenser in a 10 (or more)-step dilution series. As control, the cells were treated with vehicle (DMSO at 0.3% final concentration). After 72 h, the cells were treated with 20 μl/well of 50% CTG solution in PBS (Promega Cell Titer Glo (catalogue #G755B and G756B)) and incubated at room temperature for 10 min, and luminescence was measured by means of a VICTOR V (Perkin Elmer), in order to determine cell viability at the end of treatment. The percentage effect on cell growth and the IC50 derived therefrom were determined for each test substance using the values from untreated wells (=percent viability). The IC50 values were calculated using a 4-parameter fit.

human full length PDE3B = molecular target: T2, human full length PDE3B (Homo sapiens, UniProt Q13370); assay: PDE3B enzyme inhibition (3H-cAMP Scintillation Proximity Assay); assay type: biochemical; conditions: PDE3B cell extract from Sf9 cells, 60 min room temperature; read-out: Target IC50 PDE3B IC50
T2 construct: Sf9 cells overexpressing human full length PDE3B; purchased SB Drug Discovery, UK; host or cells: Sf9 cells (cell extract)
Summary of the method: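 SPA with Sf9 cell extract overexpressing human full-length PDE3B, diluted for linear kinetics and <70% substrate turnover, in 50 mM Tris/HCl pH 7.5, 8.3 mM MgCl2, 1.7 mM EDTA, 0.2% BSA. [8-3H]cAMP substrate, 60 min at room temperature, stopped with yttrium SPA beads. IC50 from sigmoidal fit of % activity vs log concentration.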

[1] = test system: HeLa cells (cervical cancer); assay: Cell proliferation measurement (Cell Titer Glo), HeLa; assay type: cell-based; conditions: Homo sapiens, 72 h treatment, read-out: Anti-proliferation IC50 HeLa (Cervical cancer)
Summary of the method: as §1

H4 = assay: Cell proliferation measurement (Cell Titer Glo), H4; assay type: cell-based; conditions: Homo sapiens, H4 cells, 72 h treatment, read-out: Anti-proliferation IC50 H4
Method: as §2

NCI-H1734 = assay: Cell proliferation measurement (Cell Titer Glo), NCI-H1734; assay type: cell-based; conditions: Homo sapiens, NCI-H1734 cells, 72 h treatment, read-out: Anti-proliferation IC50 NCI-H1734
Method: as §2

T1 sequence (Q14432 whole entry): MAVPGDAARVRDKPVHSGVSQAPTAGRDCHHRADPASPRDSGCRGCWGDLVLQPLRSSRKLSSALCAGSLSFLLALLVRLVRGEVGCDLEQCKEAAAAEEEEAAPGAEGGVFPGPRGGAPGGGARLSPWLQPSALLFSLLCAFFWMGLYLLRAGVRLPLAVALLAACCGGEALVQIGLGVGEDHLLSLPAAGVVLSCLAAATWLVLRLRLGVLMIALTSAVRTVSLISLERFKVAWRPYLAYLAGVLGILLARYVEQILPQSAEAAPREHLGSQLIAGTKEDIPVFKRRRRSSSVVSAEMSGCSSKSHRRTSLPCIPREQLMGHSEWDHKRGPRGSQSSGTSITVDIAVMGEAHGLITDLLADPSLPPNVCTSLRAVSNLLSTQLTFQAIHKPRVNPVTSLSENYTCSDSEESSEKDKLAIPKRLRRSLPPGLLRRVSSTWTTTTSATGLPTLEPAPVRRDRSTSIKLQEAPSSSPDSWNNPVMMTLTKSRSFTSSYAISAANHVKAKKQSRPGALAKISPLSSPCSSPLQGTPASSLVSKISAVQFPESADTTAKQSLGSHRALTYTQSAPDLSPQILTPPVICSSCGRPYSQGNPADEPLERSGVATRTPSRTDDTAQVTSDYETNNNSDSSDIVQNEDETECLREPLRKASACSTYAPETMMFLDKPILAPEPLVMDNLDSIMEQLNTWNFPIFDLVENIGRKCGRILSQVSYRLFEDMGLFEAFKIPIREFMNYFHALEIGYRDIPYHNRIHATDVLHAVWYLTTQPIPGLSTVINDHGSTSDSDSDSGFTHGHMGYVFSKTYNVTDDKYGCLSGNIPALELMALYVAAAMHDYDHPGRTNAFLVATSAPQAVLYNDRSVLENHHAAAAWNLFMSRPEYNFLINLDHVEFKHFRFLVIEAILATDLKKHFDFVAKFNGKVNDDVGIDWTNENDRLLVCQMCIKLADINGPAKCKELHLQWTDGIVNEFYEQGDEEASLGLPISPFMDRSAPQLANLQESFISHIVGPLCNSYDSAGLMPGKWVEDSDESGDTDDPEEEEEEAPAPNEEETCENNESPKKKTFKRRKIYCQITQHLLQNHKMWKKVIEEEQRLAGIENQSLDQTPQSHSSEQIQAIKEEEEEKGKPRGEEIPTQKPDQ
T2 sequence (Q13370 whole entry): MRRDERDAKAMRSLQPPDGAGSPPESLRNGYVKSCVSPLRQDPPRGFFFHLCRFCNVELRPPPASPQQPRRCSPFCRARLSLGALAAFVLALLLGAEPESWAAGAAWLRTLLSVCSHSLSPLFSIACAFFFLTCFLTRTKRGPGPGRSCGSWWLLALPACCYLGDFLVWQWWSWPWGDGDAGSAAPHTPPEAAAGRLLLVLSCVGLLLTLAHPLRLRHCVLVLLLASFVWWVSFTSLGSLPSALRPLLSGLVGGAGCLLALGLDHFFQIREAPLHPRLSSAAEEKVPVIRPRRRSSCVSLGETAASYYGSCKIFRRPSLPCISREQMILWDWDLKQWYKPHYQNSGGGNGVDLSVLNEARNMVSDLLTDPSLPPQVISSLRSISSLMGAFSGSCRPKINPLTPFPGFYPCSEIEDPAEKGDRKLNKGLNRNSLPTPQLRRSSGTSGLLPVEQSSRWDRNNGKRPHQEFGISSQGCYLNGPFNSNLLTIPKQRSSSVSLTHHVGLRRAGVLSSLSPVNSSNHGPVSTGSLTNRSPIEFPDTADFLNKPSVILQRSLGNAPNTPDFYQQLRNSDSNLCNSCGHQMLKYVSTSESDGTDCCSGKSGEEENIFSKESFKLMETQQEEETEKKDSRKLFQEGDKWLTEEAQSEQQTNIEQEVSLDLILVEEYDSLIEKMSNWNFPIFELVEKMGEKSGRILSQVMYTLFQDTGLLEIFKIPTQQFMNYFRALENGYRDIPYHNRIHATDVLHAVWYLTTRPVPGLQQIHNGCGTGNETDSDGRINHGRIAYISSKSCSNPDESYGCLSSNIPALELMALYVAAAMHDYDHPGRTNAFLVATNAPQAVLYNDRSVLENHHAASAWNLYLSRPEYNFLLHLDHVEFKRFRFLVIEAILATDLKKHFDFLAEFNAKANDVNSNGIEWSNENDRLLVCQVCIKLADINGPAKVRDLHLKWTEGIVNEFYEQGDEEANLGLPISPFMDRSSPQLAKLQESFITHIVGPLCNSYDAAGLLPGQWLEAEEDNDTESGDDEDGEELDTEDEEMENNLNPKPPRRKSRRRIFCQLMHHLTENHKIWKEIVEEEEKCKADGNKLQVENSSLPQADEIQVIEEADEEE

| Compound | IC50 (human full length PDE3A) [nM] | IC50 (SK-MEL-3 (melanoma)) [nM] | IC50 (IGR-37 (melanoma)) [nM] | IC50 (human full length PDE3B) [nM] | IC50 [1] [nM] | IC50 (H4) [nM] | IC50 (NCI-H1734) [nM] |
| --- | --- | --- | --- | --- | --- | --- | --- |
| O=C1CCC(c2ccc(-c3cnn(C(F)F)c3)c(C(F)(F)F)c2)=NN1 [Example 127, 6-{4-[1-(difluoromethyl)-1H-pyrazol-4-yl]-3-(trifluoromethyl)phenyl}-4,5-dihydropyridazin-3(2H)-one] | 73 | 3.64 | 5.37 | 77 | 1.78 |  |  |
| O=C1CCC(c2ccc(N3CCOCC3)cc2)=NN1 [Example 123, 6-[4-(morpholin-4-yl)phenyl]-4,5-dihydropyridazin-3(2H)-one] |  | > 100 | 276 | > 1000 | 79.8 |  |  |
| O=C1CCC(c2ccc(Cl)c(Cl)c2)=NN1 [Example 125, 6-(3,4-Dichlorophenyl)-4,5-dihydropyridazin-3(2H)-one] | 625 | 36.1 | 55.1 | 335 | 16 |  |  |
| O=C1CCC(c2ccc(N3CCC(F)(F)C3)c(C(F)(F)F)c2)=NN1 [Example 22, 6-[4-(3,3-Difluoropyrrolidin-1-yl)-3-(trifluoromethyl)phenyl]-4,5-dihydropyridazin-3(2H)-one] | 159 | 718 | 8.82 | 148 | 5.2 |  |  |
| COCCNc1ccc(C2=NNC(=O)CC2)cc1C(F)(F)F [Example 129, 6-{4-[(2-methoxyethyl)amino]-3-(trifluoromethyl)phenyl}-4,5-dihydropyridazin-3(2H)-one] | 120 | 4.58 | 4.77 | 210 | 2.14 |  |  |
| Cc1cc(C2=NNC(=O)CC2)ccc1-c1ccc(F)cc1 [Example 3, 6-(4′-Fluoro-2-methylbiphenyl-4-yl)-4,5-dihydropyridazin-3(2H)-one] | 190 | 8.42 |  | 150 | 4.59 | 36.6 | 27.7 |
| O=C1CCC(c2ccc(-n3ccc(C(F)(F)F)n3)c(F)c2)=NN1 [Example 131, 6-{3-fluoro-4-[3-(trifluoromethyl)-1H-pyrazol-1-yl]phenyl}-4,5-dihydropyridazin-3(2H)-one] | 620 | 36.2 | 43.8 | 385 | 17.7 |  |  |
| O=C1CCC(c2cc(F)c(N3CC4CC4C3)c(F)c2)=NN1 (stereo not drawn) [Example 14, 6-[4-(3-Azabicyclo[3.1.0]hex-3-yl)-3,5-difluorophenyl]-4,5-dihydropyridazin-3(2H)-one] | 180 | 5.84 |  | 77 | 2.16 | 30.9 | 18.8 |
| O=C1CCC(c2ccc(NCC(O)C(F)(F)F)c(C(F)(F)F)c2)=NN1 (racemic) [Example 130, 6-[4-{[3,3,3-trifluoro-2-hydroxypropyl]amino}-3-(trifluoromethyl)phenyl]-4,5-dihydropyridazin-3(2H)-one (racemic)] | 89 | 8.73 | 9.03 | 86 | 4.32 |  |  |
| O=C1CCC(c2ccc(-c3ccc(F)cc3)c(C(F)(F)F)c2)=NN1 [Example 128, 6-[4′-fluoro-2-(trifluoromethyl)[1,1′-biphenyl]-4-yl]-4,5-dihydropyridazin-3(2H)-one] | 240 | 15.2 | 34.8 | 210 | 7.79 |  |  |
| O=C1CCC(c2cc(F)c(N3CCC(F)(F)C3)c(F)c2)=NN1 [Example 13, 6-[4-(3,3-Difluoropyrrolidin-1-yl)-3,5-difluorophenyl]-4,5-dihydropyridazin-3(2H)-one] | 310 | 13.8 |  | 250 | 5.59 | 41.1 | 32 |
| O=C1CCC(c2cc(Cl)c(N3CCOCC3)c(Cl)c2)=NN1 [Example 124, 6-[3,5-dichloro-4-(morpholin-4-yl)phenyl]-4,5-dihydropyridazin-3(2H)-one] | 59 | 16.8 | 32.9 | 73 | 6.9 |  |  |
| COc1ccc(C2=NNC(=O)CC2)cc1Cl [Example 10, 6-(3-Chloro-4-methoxyphenyl)-4,5-dihydropyridazin-3(2H)-one] | 110 | 40.2 |  | 110 | 31.8 |  |  |
| Cc1cc(C2=NNC(=O)CC2)ccc1-c1ccncc1 [Example 5, 6-[3-Methyl-4-(pyridin-4-yl)phenyl]-4,5-dihydropyridazin-3(2H)-one] | 120 | 65.7 |  | 39 | 21.3 |  |  |
| Cc1ccccc1-c1ccc(C2=NNC(=O)CC2)cc1F [Example 77, 6-(2-fluoro-2′-methyl[1,1′-biphenyl]-4-yl)-4,5-dihydropyridazin-3(2H)-one] | 100 | 4.53 |  | 80 | 2.04 |  |  |
| COc1ccccc1-c1ccc(C2=NNC(=O)CC2)cc1F [Example 62, 6-(2-fluoro-2′-methoxy[1,1′-biphenyl]-4-yl)-4,5-dihydropyridazin-3(2H)-one] | 120 | 22.8 |  | 47 | 14 |  |  |
